Test results published in patent publication US10842151B2, “Small molecule compound for enhancing plant stress resistance” (SHANGHAI INSTITUTES FOR BIOLOGICAL SCIENCES, CHINESE …, priority 2015, dated 2020).
pEC50: −log10 of the molar value. Values belong to the compound of their own block, whether it stands above or below them.

How the values were obtained:
PYL2 + HAB1 [1] = biological target: T1, PYL2 + HAB1 (Arabidopsis thaliana, UniProt O80992); assay: AlphaScreen experiment, PYL2 + HAB1; format: binding; settings: number in brackets; read-out: Half maximum effect concentration EC50 (PYL2 + HAB1)
T1 construct: made in house; host or cells: E. coli BL21 (DE3)
T1 sequence (O80992 14-188 limits assumed): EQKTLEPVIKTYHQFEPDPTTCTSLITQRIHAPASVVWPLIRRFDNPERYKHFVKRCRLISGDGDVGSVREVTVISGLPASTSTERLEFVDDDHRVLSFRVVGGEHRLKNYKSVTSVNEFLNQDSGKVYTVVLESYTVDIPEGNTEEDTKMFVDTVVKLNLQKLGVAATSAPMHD
T1 sequence (Q9CAJ0 172-511 partner limits assumed): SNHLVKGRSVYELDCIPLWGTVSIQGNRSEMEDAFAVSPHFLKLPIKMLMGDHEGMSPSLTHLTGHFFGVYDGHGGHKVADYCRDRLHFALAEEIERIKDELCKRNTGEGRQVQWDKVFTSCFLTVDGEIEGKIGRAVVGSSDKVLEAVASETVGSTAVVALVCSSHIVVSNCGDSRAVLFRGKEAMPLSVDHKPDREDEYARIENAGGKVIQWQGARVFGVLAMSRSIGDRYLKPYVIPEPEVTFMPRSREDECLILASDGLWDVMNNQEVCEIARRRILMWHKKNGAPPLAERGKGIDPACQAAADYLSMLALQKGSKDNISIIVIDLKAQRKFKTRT
Method: (§1) After incubating for 1.5 hours at room temperature in the dark, it was placed into an Envision Plate Reader (available from Perkin Elmer) under the programmed AlphaScreen procedure for readings.

PYL2 + HAB1 [2] = biological target: T1, PYL2 + HAB1; assay: HAB1 phosphatase activity assay with PYL2, SnRK2.6 phosphorylated polypeptide substrate; format: biochemical; settings: PYL2 receptor; same concentration as ABA
Method: (§2) HAB1 Phosphatase Activity Assay […] The reaction system was incubated at room temperature for 30 minutes, followed by a further reaction for 30 minutes after adding an 11-amono acid phosphorylated polypeptide as a substrate. The phosphorylated polypeptide consisting of amino acid 170-180 of SnRK2.6 protein kinase (sequence […]) was purchased from […] company, wherein phosphorylated […] was a known HAB1 dephosphorylation target site. After 30 minutes, chromogenic reagent (purchased from BioVision) was added and the absorbance at 650 nm was read on a microplate reader (Molecular Devices).

[3] = tested on: PYR/PYL receptors (PYR1, PYL1, PYL2 and PYL7)-HAB1 complex; assay: Broad spectrum experiment on PYR/PYL receptors (HAB1 phosphatase activity); format: biochemical, Arabidopsis; settings: 1 μM; for binding ability with PYR1/PYL1/PYL2/PYL7 compared with ABA: FIG. 1, FIG. 13
Method: as §2

[4] = tested on: PYR1/PYL1/PYL2/PYL7 + HAB1; assay: AlphaScreen experiment, PYL receptor binding to HAB1; parameters: species or system Arabidopsis; settings: AMX: PYR1/PYL1/PYL2/PYL7; 0720B: PYL2 receptor and PYL1 receptor
Method: as §1

soybean Williams 82 = assay: Soybean leaf transpiration experiment (thermal imaging); format: in vivo
Method: After three weeks of continuous watering, 0.05% tween-20 and corresponding concentrations of DMSO (control)/compound (+)-ABA/0918/1127 were sprayed onto the plants in a single administration with an amount of 1.2 ml/pot. Images were taken daily using the FLIR A655sc thermal imaging camera at the same time before and after spraying. The Williams 82 ecotype was used in soybean leaf transpiration experiments for compounds 0604c, 0918 and 1127 and was long-day cultured at 26° C. After the plants grew and had 3 leaves in each of 3 groups, 0.05% tween-20 and 50 μM DMSO (control)/(+)-ABA/0604c/0918/1127 compounds were sprayed in a single administration with an amount of 4 ml/pot. Images were taken daily using the FLIR A655sc thermal imaging camera at the same time before and after spraying.
(§3) Leaf transpiration experiments of soybean and cotton for compound 0720B were carried out at 26° C. with long-day lighting. 16 days and 23 days after sowing, a solution containing 0.1% tween-20 and corresponding concentration of (+)-ABA, or 0720B compound or 0.1% Tween-20 and 0.05% DMSO (control) was sprayed in an amount of 4 ml/pot. Images were taken daily using the FLIR A655sc thermal imaging camera at the same time before and after spraying.

cotton [5] = assay: Cotton leaf transpiration experiment (thermal imaging); format: in vivo; settings: 50 μM; after two days; vs DMSO
Method: as §3

soybean = assay: Soil drought experiment, soybean; format: in vivo
Method: Only one plant was contained in each pot. All soybean plants were long-day cultured at 26° C. Watering was stopped after the plant had three leaves in each of three groups of leaves and the plants with consistent growth were selected for drought treatment. As for corn, watering was stopped during the small trumpet period for drought treatment. […] After a week, the watering was resumed. Soybeans and cotton used in leaf transpiration experiments for compound 0720B were also used for soil drought experiments. Each pot contained only one plant and was filled with the same weight of soil to reduce experimental errors. All of the soybean plants were grown at 26° C. for long-day culture. 16 days after seeding, watering was stopped and the plants with consistent growth were selected for drought treatment. […] Cotton drought experiments were similar to that of the soybean. 23 days after seeding, the watering was stopped, and the plants with consistent growth were selected for drought treatment. […] After 10 days of drought, the photos were taken.

cotton [6] = assay: Soil drought experiment, cotton; format: in vivo; settings: 50 μM every 4 days; after 10 days of drought
Method: Soybeans and cotton used in leaf transpiration experiments for compound 0720B were also used for soil drought experiments. Each pot contained only one plant and was filled with the same weight of soil to reduce experimental errors. All of the soybean plants were grown at 26° C. for long-day culture. 16 days after seeding, watering was stopped and the plants with consistent growth were selected for drought treatment. […] Cotton drought experiments were similar to that of the soybean. 23 days after seeding, the watering was stopped, and the plants with consistent growth were selected for drought treatment. […] After 10 days of drought, the photos were taken.

PYL7 + HAB1 = biological target: T2, PYL7 + HAB1 (Arabidopsis thaliana, UniProt Q1ECF1); assay: AlphaScreen experiment, PYL7 + HAB1; format: binding; settings: number in brackets; read-out: Half maximum effect concentration EC50 (PYL7 + HAB1)
T2 construct: made in house; host or cells: E. coli BL21 (DE3)
T2 sequence (Q1ECF1 1-211): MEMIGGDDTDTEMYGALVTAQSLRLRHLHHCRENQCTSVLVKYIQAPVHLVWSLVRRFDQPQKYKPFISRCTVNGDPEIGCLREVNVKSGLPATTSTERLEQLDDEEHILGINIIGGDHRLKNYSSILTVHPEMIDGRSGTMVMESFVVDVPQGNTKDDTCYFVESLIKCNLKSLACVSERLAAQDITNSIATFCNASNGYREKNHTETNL
T2 sequence (Q9CAJ0 172-511 partner limits assumed): T1 sequence (Q9CAJ0 172-511 partner limits assumed)
Method: as §1

PYR1 + HAB1 = biological target: T3, PYR1 + HAB1 (Arabidopsis thaliana, UniProt O49686); assay: AlphaScreen experiment, PYR1 + HAB1; format: binding; settings: column 2; number in brackets; read-out: Half maximum effect concentration EC50 (PYR1 + HAB1)
T3 sequence (O49686 1-191): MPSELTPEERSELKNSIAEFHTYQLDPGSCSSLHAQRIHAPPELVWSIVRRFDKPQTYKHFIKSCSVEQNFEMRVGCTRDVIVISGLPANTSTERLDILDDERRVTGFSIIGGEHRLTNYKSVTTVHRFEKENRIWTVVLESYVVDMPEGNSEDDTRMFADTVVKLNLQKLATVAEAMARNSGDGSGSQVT
T3 sequence (Q9CAJ0 172-511 partner): T1 sequence (Q9CAJ0 172-511 partner limits assumed)
Method: as §1

[7] = tested on: soybean GmPYL3 and GmPYL6 + Arabidopsis AtHAB1; assay: AlphaScreen experiment with soybean GmPYL receptors; format: binding; settings: FIG. 9
Method: as §1

[8] = tested on: Arabidopsis thaliana Col-0 ecotype seeds; assay: Seed germination, Col-0; format: in vivo; settings: 1 μM
From the text: (§4) Two lines of plant were sown simultaneously on a single medium of 6 cm diameter, with 15 seeds sown for each line and 4 replicates for each compound. […]

[9] = tested on: pyr1;pyl1;pyl4 triple mutant seeds; assay: Seed germination, PYR/PYL triple mutant; format: in vivo, Arabidopsis thaliana; settings: 1 μM; six days after seeding
From the text: as §4

[10] = tested on: Arabidopsis ABA synthesis defective mutant aba2-1; format: in vivo, Arabidopsis thaliana; settings: 5 μM sprayed; after 4 days; vs DMSO
[11] = tested on: Arabidopsis Col-0 ecotype; assay: Soil drought experiment, Arabidopsis; format: in vivo, Arabidopsis thaliana
Method: Seeds of Arabidopsis Col-0 ecotype were sterilized with NaClO and then sown on ½ MS solid medium at 4° C. for 3 days of vernalization. After 6 days of growing, the well-grown seedlings having uniform size were selected and transferred into 8×7×6 cm^3 pots. Each pot was filled with the same weight of soil and the same number of plants (six plants) was planted to reduce experimental error. All the pots were subjected to a short-day culture at 22° C. After two weeks, watering was stopped for drought treatment. […] The position of the flowerpot was changed every day during the process of drought to reduce the error caused by environmental factors. During the whole drought period, the solution was sprayed twice in total and photos were recorded regularly. The watering was resumed in about three weeks.

maize (corn) = assay: Soil drought experiment, maize; format: in vivo; settings: 50 μM; a week of drought
Method: Only one plant was contained in each pot. All soybean plants were long-day cultured at 26° C. Watering was stopped after the plant had three leaves in each of three groups of leaves and the plants with consistent growth were selected for drought treatment. As for corn, watering was stopped during the small trumpet period for drought treatment. […] After a week, the watering was resumed.

[12] = tested on: ABA-induced environmental stress-related gene expression; assay: Gene expression analysis (fluorescence quantitative PCR); format: in vivo, Arabidopsis thaliana (Col-0); settings: one day after treatment; ABA 10 μM
Method: The whole plant or leaves were taken, and RNA extraction was carried out by using conventional methods. After reverse transcription, the fluorescence quantitative PCR was carried out. Triple biological samples were taken for each treatment which was performed twice. The ACT7 gene was used as a reference gene.

- pEC50 (PYL2 + HAB1 [1]): 7.52
- binding ability with PYR1/PYL1/PYL2/PYL7 compared with ABA [3]: significantly higher than that of ABA
- PYL receptor binding affinity compared with ABA [4]: significantly superior to ABA
Compound: CCCN1C(=O)CC(C)c2cc(NS(=O)(=O)Cc3c(F)c(F)c(C)c(F)c3F)ccc21 (stereo not drawn) [Compound 0720B]
- inhibition of the dephosphorylation effect of HAB1 on SnRK2.6 phosphorylated polypeptide compared with ABA (PYL2 + HAB1 [2]): significantly better than that of ABA at the same concentration
- leaf temperature (soybean Williams 82; one day after spraying, 10 μM, 20 μM or 50 μM): significantly higher than that of plants in DMSO-sprayed control and that of plants sprayed with 50 μM ABA
- leaf temperature (soybean Williams 82; two days after spraying, 0720B 20 μM or 50 μM, ABA 50 μM): significantly higher than that of the DMSO-sprayed control
- leaf temperature (cotton [5]): significantly higher than that in plants sprayed with DMSO
- growth after rewatering (soybean; 10 μM, 20 μM or 50 μM every 3 days, rewatered 11 days after drought): significantly better than that of the plants sprayed with DMSO (control) and the plants sprayed with 50 μM ABA
- growth (cotton [6]): significantly better than that of the plants sprayed with DMSO (control) and the plants sprayed with 50 μM ABA

Compound: CCCN1C(=O)CCc2cc(NS(=O)(=O)Cc3ccc(C)c(F)c3F)ccc21 [Compound 0918]
- pEC50 (PYL2 + HAB1 [1]): 7.52
- pEC50 (PYL7 + HAB1): 7.70
- pEC50 (PYR1 + HAB1): 7.70
- binding to PYR/PYL receptors [3]: could bind with PYR1/PYL1/PYL2/PYL3/PYL4/PYL5/PYL7/PYL10
- binding ability with PYR1/PYL1/PYL2/PYL7 compared with ABA [3]: significantly higher than those of ABA
- affinities for soybean GmPYL proteins compared with ABA [7]: significantly higher affinities
- inhibition effect on germination of Col-0 ecotype seeds compared with control compound [8]: significantly better inhibition effect
- germination of Col-0 ecotype seeds ([8]; six days after seeding): could still inhibit germination of Col-0 ecotype seeds
- germination of pyr1;pyl1;pyl4 triple mutant seeds [9]: could not inhibit germination of PYR/PYL triple mutant pyr1;pyl1;pyl4 seeds
- leaf temperature [10]: still higher than that in the control group
- plant survival ([11]; 5 μM sprayed, 18 days after drought): still survived
- drought resistance compared with compound with fewer halogen atoms (0604c) ([11]; same concentration, after 2 weeks of drought, FIG. 8c): stronger drought resistance
- growth (soybean; 50 μM, a week of drought, one month after rewatering): grew significantly better than the plants sprayed with DMSO (control) and sprayed with 50 μM ABA
- survival after rewatering (maize (corn)): Most of the corn sprayed with compound 0918 survived after rewatering
- expression level of relevant genes compared with ABA [12]: significantly higher than that in the plants treated with 10 μM ABA
